Laboratory results from the NIST ThermoML archive (doi:10.1021/je050414d).
“And” between values parts separate entries of the source, which are not always exact repeats. Equal values may be shown once.

What was measured:
[1] = 101 kPa, Liquid; for viscosity: Capillary tube (Ostwald / Ubbelohde) method
[2] = xn = mol fraction of the nth substance listed; conditions: 101 kPa, Liquid, x2 = 0; for viscosity: Capillary tube (Ostwald / Ubbelohde) method

CO [methanol]
[1]
Conditions	mass density [kg/m3]	viscosity [mPa·s]
293.15 K	791.54	0.582
298.15 K	786.83	0.55
303.15 K	782.12	0.512
313.15 K	772.6	0.448
323.15 K	762.97	0.395
333.15 K	749.69	0.351

CC(C)O [propan-2-ol] + CCOC(=O)OCC
[2]
Conditions	mass density [kg/m3]	viscosity [mPa·s]
293.15 K	785.28	2.382
298.15 K	780.69	2.069
303.15 K	776.15	1.743
313.15 K	766.34	1.288
323.15 K	755.66	1.002
333.15 K	745.51	0.789
343.15 K	735.02	0.626

Cc1ccccc1 [toluene]
[1]
Conditions	mass density [kg/m3]	viscosity [mPa·s]
298.15 K	862.01	0.554
303.15 K	858.32	0.525
313.15 K	848.92	0.47
323.15 K	838.75	0.423
333.15 K	829.93	0.385
343.15 K	820.3	0.35
353.15 K	810.54	0.31
363.15 K	797.68	0.286

CO [methanol] + CCOC(=O)OCC
[2]
Conditions	mass density [kg/m3]	viscosity [mPa·s]
293.15 K	791.54	0.582
298.15 K	786.83	0.55
303.15 K	782.12	0.512
313.15 K	772.6	0.448
323.15 K	762.97	0.395
333.15 K	749.69	0.351

CC(C)O [propan-2-ol]
[1]
Conditions	mass density [kg/m3]	viscosity [mPa·s]
293.15 K	785.28	2.382
298.15 K	780.69	2.069
303.15 K	776.15	1.743
313.15 K	766.34	1.288
323.15 K	755.66	1.002
333.15 K	745.51	0.789
343.15 K	735.02	0.626

Cc1ccccc1 [toluene] + CCOC(=O)OCC
[2]
Conditions	mass density [kg/m3]	viscosity [mPa·s]
298.15 K	862.01	0.554
303.15 K	858.32	0.525
313.15 K	848.92	0.47
323.15 K	838.75	0.423
333.15 K	829.93	0.385
343.15 K	820.3	0.35
353.15 K	810.54	0.31
363.15 K	797.68	0.286

CCOC(=O)OCC [diethyl carbonate]
[1]
Conditions	mass density [kg/m3]	viscosity
293.15 K	975	0.801 mPa·s and 0.8 mPa·s
298.15 K	968.97	0.746 mPa·s
303.15 K	962.39	0.695 mPa·s
313.15 K	952.32	0.61 mPa·s
323.15 K	939.78	0.541 mPa·s
333.15 K	928.69	0.483 mPa·s
343.15 K	916.33	0.435 mPa·s
353.15 K	905.02	0.393 mPa·s
363.15 K	893.71	0.358 mPa·s
